Target: GLP1R (Homo sapiens, UniProt P43220)
Assay: GLP1R cAMP HTRF assay, HEK293/GLP-1R/CRE/Luc (HEK293T cells)
Format: cell-based
Details: read-out: EC50
Description: GLP-1R-mediated agonist activity was determined with a cell-based functional assay utilizing an HTRF (Homogeneous Time-Resolved Fluorescence) cAMP detection kit (cAMP Dynamic 2 Assay Kit; CisBio cat #62AM4PEC) that measures cAMP levels in the cell. The method is a competitive immunoassay between native cAMP produced by the cells and exogenous cAMP labeled with the dye d2. The tracer binding is visualized by a mAb anti-cAMP labeled with Cryptate. The specific signal (i.e., energy transfer) is inversely proportional to the concentration of cAMP in either standard or experimental sample.
A cell line stably expressing the receptor was isolated.
Varying concentrations of each compound to be tested (in DMSO) were diluted in DMSO to obtain 200× compound working solution first and then 50 nl compounds were added to a white 384-well assay plate (Greiner 784075) with ECHO. The final DMSO concentration was 0.5%. The compound concentration range may be adjusted at any time.
Cells were removed from cryopreservation, re-suspended in 5 mL of Dulbecco's Phosphate Buffered Saline (DPBS-Sigma Cat # D8537) and centrifuged at 900 g for 5 min at 22° C. The cell pellet was then re-suspended in 1 mL of assay buffer [DPBS with 500 μM IBMX (Sigma #15879) and 0.1% BSA (Sigma # A1933). IBMX and BSA were freshly added on the day of assay]. A 10 μL sample of the cell suspension was counted on an Invitrogen Countess II to determine cell viability and cell count per mL. The remaining cell suspension was then adjusted with assay buffer to deliver 1000 viable cells per well using a Matrix Combi Multidrop reagent dispenser. 10 μL cell suspensions were added to each well of the assay plate which already contains compound. The plate was sealed and incubated at 37° C. with 5% CO2 for 30 minutes.
Following the 30 minute incubation, 5 μL of labeled d2 cAMP and 5 μL of anti-cAMP antibody (both diluted 1:20 in cell lysis buffer; as described in the manufacturer's assay protocol) were added to each well of the assay plate. The plates w ere then incubated at room temperature and after 60 minutes, changes in the HTRF signal were read with an Envision multi-label plate reader using excitation of 330 nm and emissions of 615 and 665 nm. Raw data were converted to nM cAMP by interpolation from a cAMP standard curve (as described in the manufacturer's assay protocol) and the percent effect was determined relative to a saturating concentration of the full agonist GLP-17-37 (10 nM) included on each plate. EC50 determinations were made from agonist dose-response curves analyzed with a curve fitting program using a 4-parameter logistic dose response equation.
3) Anti-cAMP antibody-cryptate working solution preparation • c) The lyophilisate was reconstituted with appropriate amount of distilled water according to manufacturer's instruction to make working stock which can be aliquoted and frozen (−20° C.). • d) The working stock solution was diluted 1:20 in the conjugate and lysis buffer before use. Procedures Procedures for Cell Suspension Preparation • 1. Frozen cells were thawed very briefly in a 37° C. water bath under sterile conditions until just before ice completely melt (for about 1 minute) with a continuous agitation. Caution was taken because a longer incubation could result in cell death. • 2. DMSO was removed from the media by carefully transferring thawed cells to a sterile 15/50 mL tube, filling a tube with 10-50 mL of complete media pre-warmed to 37° C., and allowing the cells to sit 5 min before centrifuging at 900 rpm for 5 minutes for cell collection. • 3. The cells were resuspended with assay buffer. • 4. For stable GLP1-R assay, the optimized cell density is 1000 cells/well. Caution was taken because cell density optimization was crucial and needed to be optimized in different laboratories. The level of cAMP produced by the cells must fall within the linear range of the standard curve.

Chain of GLP1R (P43220 24-463): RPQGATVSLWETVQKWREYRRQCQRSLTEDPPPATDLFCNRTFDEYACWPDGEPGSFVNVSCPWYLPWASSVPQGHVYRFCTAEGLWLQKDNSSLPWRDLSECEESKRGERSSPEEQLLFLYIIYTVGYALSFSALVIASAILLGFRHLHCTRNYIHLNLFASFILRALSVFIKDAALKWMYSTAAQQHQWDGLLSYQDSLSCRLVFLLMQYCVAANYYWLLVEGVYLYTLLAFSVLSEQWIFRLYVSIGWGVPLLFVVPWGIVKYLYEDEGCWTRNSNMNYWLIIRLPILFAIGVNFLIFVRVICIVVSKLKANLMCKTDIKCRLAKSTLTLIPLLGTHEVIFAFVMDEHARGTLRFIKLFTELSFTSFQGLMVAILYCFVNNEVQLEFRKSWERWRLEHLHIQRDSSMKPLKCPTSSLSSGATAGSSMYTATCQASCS

SMILES | EC50
O=C(O)c1ccc2nc(CN3CC=C(c4cccc(OCc5cccc(Cl)c5)n4)CC3)n(C[C@@H]3CCO3)c2c1 [Compound 137, (S)-2-((6-((3-chlorobenzyl)oxy)-3′,6′-dihydro-[2,4′-bipyridin]-1′(2′H)-yl)methyl)-1-(oxetan-2-ylmethyl)-1H-benzo[d]imidazole-6-carboxylic add] | ≤ 1000 nM
O=C(O)c1ccc2nc(CN3CC=C(c4cc5cc[nH]c5c(OCc5ccc(Cl)cc5F)n4)CC3)n(C[C@@H]3CCO3)c2c1 [Compound 48, (S)-2-((4-(7-((4-chloro-2-fluorobenzyl)oxy)-1 h-pyrrolo[2,3-c]pyridin-5-yl)-3,6-dihydropyridin-1(2H)-yl)methyl)-1-(oxetan-2-ylmethyl)-1 h-benzo[d]imidazole-6-carboxylic acid] | ≤ 150 nM
O=C(O)c1ccc2nc(CN3CC=C(c4cc(OCc5ccc(Cl)cc5F)ccn4)CC3)n(C[C@@H]3CCO3)c2c1 [Compound 30, (S)-2-((4-((4-chloro-2-fluorobenzyl)oxy)-3′,6′-dihydro-[2,4′-bipyridin]-1′(2′H)-yl)methyl)-1-(oxetan-2-ylmethyl)-1 h-benzo[d]imidazole-6-carboxylic add] | ≤ 150 nM
O=C(O)c1ccc2nc(CN3CC=C(c4cccc(N5CCc6cc(Cl)ccc6C5)n4)CC3)n(C[C@@H]3CCO3)c2c1 [Compound 39, (S)-2-((6-(6-chloro-3,4-dihydroisoquinolin-2(1H)-yl)-3′,6′-dihydro-[2,4′-bipyridin]-1′(2′H)-yl)methyl)-1-(oxetan-2-ylmethyl)-1 h-benzo[d]imidazole-6-carboxylic add] | ≤ 150 nM
O=C(O)c1ccc2nc(CN3CC=C(c4ccc(=O)n(CCc5ccc(Cl)cc5F)n4)CC3)n(C[C@@H]3CCO3)c2c1 [Compound 20, (S)-2-((4-(1-(4-chloro-2-fluorophenethyl)-6-oxo-1,6-dihydropyridazin-3-yl)-5,6-dihydropyridin-1(2H)-yl)methyl)-1-(oxetan-2-ylmethyl)-1 h-benzo[d]imidazole-6-carboxylic acid] | ≤ 1000 nM
N#Cc1ccc(COc2cccc(N3CCC(Cc4nc5ccc(C(=O)O)c(F)c5n4C[C@@H]4CCO4)CC3)n2)nc1 [Compound 233, (S)-2-((l-(6-((5-cyanopyridin-2-yl)methoxy)pyridin-2-yl)piperidin-4-yl)methyl)-7-fluoro-1-(oxetan-2-ylmethyl)-1H-benzo[d]imidazole-6-carboxylic add] | ≤ 150 nM
N#Cc1ccc(COc2cc(C3=CCN(Cc4nc5ccc(C(=O)O)cc5n4C[C@@H]4CCO4)CC3)cc(F)c2F)c(F)c1 [Compound 205, (S)-2-((4-(3-(4-cyano-2-fluorobenzyloxy)-4,5-difluorophenyl)-5,6-dihydropyridin-1(2H)-yl)methyl)-1-(oxetan-2-ylmethyl)-1H-benzo[d]imidazole-6-carboxylic acid] | ≤ 150 nM
O=C(O)c1ccc2nc(CN3CCN(c4ccc5c(n4)N(Cc4ccc(Cl)cc4F)CCO5)CC3)n(C[C@@H]3CCO3)c2c1 [Compound 4, (S)-2-((4-(4-(4-chloro-2-fluorobenzyl)-3H-dihydro-2H-pyrido[3,2-b][1H]oxazin-6-yl)piperazin-1-yl)methyl)-1-(oxetan-2-ylmethyl)-1H-benzo[d]imidazole-6-carboxylic acid] | > 1000 nM
O=C(O)c1ccc2nc(CN3CC=C(c4cccc(OCc5ccc(Cl)cc5Cl)n4)CC3)n(C[C@@H]3CCO3)c2c1 [Compound 114, (S)-2-((6-((2,4-dichlorobenzyl)oxy)-3′,6′-dihydro-[2,4′-bipyridin]-1′(2′H)-yl)methyl)-1-(oxetan-2-ylmethyl)-1H-benzo[d]imidazole-6-carboxylic add] | ≤ 15 nM
O=C(O)c1ccc2nc(CN3CCN(c4cc(F)c(F)c(OCc5ccc(Cl)cc5F)c4)CC3)n(C[C@@H]3CCO3)c2c1 [Compound 187, (S)-2-((4-(3-(4-chloro-2-fluorobenzyloxy)-4,5-difluorophenyl)piperazin-1-yl)methyl)-1-(oxetan-2-ylmethyl)-1H-benzo[d]imidazole-6-carboxylic acid] | ≤ 15 nM
O=C(O)c1ccc2nc(CN3CCN(c4nc(OCc5ccc(Cl)cc5F)ncc4F)CC3)n(C[C@@H]3CCO3)c2c1 [Compound 179, (S)-2-((4-(2-(4-chloro-2-fluorobenzyloxy)-5-fluoropyrimidin-4-yl)piperazin-1-yl)methyl)-1-(oxetan-2-ylmethyl)-1H-benzo[d]imidazole-6-arboxylic acid] | ≤ 15 nM
O=C(O)c1ccc2nc(CN3CC=C(c4cc(NCc5ccc(Cl)cc5F)ccc4F)CC3)n(C[C@@H]3CCO3)c2c1 [Compound 127, (S)-2-((4-(5-((4-chloro-2-fluorobenzyl)amino)-2-fluorophenyl)-3,6-dihydropyridin-1(2H)-yl)methyl)-1-(oxetan-2-ylmethyl)-1H-benzo[d]imidazole-6-carboxylic acid] | ≤ 150 nM
O=C(O)c1ccc2nc(CN3CC=C(c4cccc(OCc5ccc(-n6nccn6)cc5)n4)CC3)n(C[C@@H]3CCO3)c2c1 [Compound 243, (S)-2-((6-((4-(2H-1,2,3-triazol-2-yl)benzyl)oxy)-3′,6′-dihydro-[2,4′-bipyridin]-1′(2′H)-yl)methyl)-1-(oxetan-2-ylmethyl)-1H-benzo[d]imidazole-6-carboxylic add] | ≤ 150 nM

Continued, values first:

EC50 | SMILES
≤ 15 nM | O=C(O)c1ccc2nc(CN3CC=C(c4nc(OCc5ccc(Cl)cc5F)ncc4F)CC3)n(C[C@@H]3CCO3)c2c1 [Compound 126, (S)-2-((4-(2-(4-chloro-2-fluorobenzyloxy)-5-fluoropyrimidin-4-yl)-5,6-dihydropyridin-1(2H)-yl)methyl)-1-(oxetan-2-ylmethyl)-1H-benzo[d]imidazole-6-carboxylic acid]
≤ 15 nM | Cc1c(C(=O)O)ccc2nc(CN3CC=C(c4cccc(OCc5ccc(Cl)cc5)n4)CC3)n(C[C@@H]3CCO3)c12 [Compound 110, (S)-2-((6-((4-chlorobenzyl)oxy)-3′,6′-dihydro-[2,4′-bipyridin]-1′(2′H)-yl)methyl)-7-methyl-1-(oxetan-2-ylmethyl)-1H-benzo[d]imidazole-6-carboxylic add]
≤ 15 nM | COc1ccc(COc2cccc(C3=CCN(Cc4nc5ccc(C(=O)O)cc5n4C[C@@H]4CCO4)CC3)n2)cn1 [Compound 119, (S)-2-((6-((6-methoxypyridin-3-yl)methoxy)-3′,6′-dihydro-[2,4′-bipyridin]-1(2′H)-yl)methyl)-1-(oxetan-2-ylmethyl)-1H-benzo[d]imidazole-6-carboxylic acid]
≤ 15 nM | O=C(O)c1ccc2nc(CN3CC=C(c4cc(OCc5ccc(Cl)cc5F)ccc4F)CC3)n(C[C@@H]3CCO3)c2c1 [Compound 43, (S)-2-((4-(5-((4-chloro-2-fluorobenzyl)oxy)-2-fluorophenyl)-3,6-dihydropyridin-1(2H)-yl)methyl)-1-(oxetan-2-ylmethyl)-1H-benzo[d]imidazole-6-carboxylic add]
≤ 15 nM | O=C(O)c1ccc2nc(CN3CC=C(c4ccc(F)c(NCc5ccc(Cl)cc5F)c4)CC3)n(C[C@@H]3CCO3)c2c1 [Compound 129, (S)-2-((4-(3-((4-chloro-2-fluorobenzyl)amino)-4-fluorophenyl)-3,6-dihydropyridin-1(2H)-yl)methyl)-1-(oxetan-2-ylmethyl)-1H-benzo[d]imidazole-6-carboxylic acid]
≤ 15 nM | O=C(O)c1ccc2nc(CN3CC=C(c4nc(OCc5ccc(C#CC6CC6)cc5F)ncc4F)CC3)n(C[C@@H]3CCO3)c2c1 [Compound 211, (S)-2-((4-(2-(4-(cyclopropylethynyl)-2-fluorobenzyloxy)-5-fluoropyrimidin-4-yl)-5,6-dihydropyridin-1(2H)-yl)methyl)-1-(oxetan-2-ylmethyl)-1H-benzo[d]imidazole-6-carboxylic acid]

Reference: patent US10844049B2, “GLP-1R agonists and uses thereof” (QILU REGOR THERAPEUTICS INC., priority 2018, dated 2020)
